{"source": "PubChem BioAssay AID1259409", "about": "(Chemical Carcinogenesis Research Information System (CCRIS), 2018)", "origin": "cited, not measured here", "test_system": "rodent chemically induced tumor inhibition, incidence and multiplicity", "experiment": "CCRIS tumor inhibitor studies", "conditions": "Route [Inhibitor]: ORAL, Promoter: NONE USED"}
{"molecule": "CC1=C(/C=C/C(C)=C/C=C/C(C)=C\\C(=O)O)C(C)(C)CCC1", "values": [{"measurement": "tumour outcome (control, treated, inhibition, significance)", "setting": "Carcinogen: N-(4-(5-NITRO-2-FURYL)-2-THIAZOLYL)FORMAMIDE, 24554-26-5, Dose [Inhibitor]: 120 MG/KG DIET DAILY STARTING 1 WK AFTER COMPLETION OF CARCINOGEN TREATMENT AND CONTINUING UNTIL END OF STUDY (STUDY DUR, Species: RAT, Strain/Sex: F344/FEMALE, Target Tissue: Type of Lesion: URINARY BLADDER: PAPILLOMA, Dose [Carcinogen]: 2 G/KG DIET DAILY FOR 10 WK", "result": "10/100 (10%), 12/100 (12%), -20%, p 0.655"}, {"measurement": "tumour outcome (control, treated, inhibition, significance)", "setting": "Carcinogen: N-(4-(5-NITRO-2-FURYL)-2-THIAZOLYL)FORMAMIDE, 24554-26-5, Dose [Inhibitor]: 240 MG/KG DIET DAILY STARTING 1 WK AFTER COMPLETION OF CARCINOGEN TREATMENT AND CONTINUING UNTIL END OF STUDY (STUDY DUR, Species: RAT, Strain/Sex: F344/FEMALE, Target Tissue: Type of Lesion: URINARY BLADDER: CARCINOMA, Dose [Carcinogen]: 2 G/KG DIET DAILY FOR 10 WK", "result": "36/100 (36%), 47/100 (47%), -31%, p 0.024"}, {"measurement": "tumour outcome (control, treated, inhibition, significance)", "setting": "Carcinogen: N-(4-(5-NITRO-2-FURYL)-2-THIAZOLYL)FORMAMIDE, 24554-26-5, Dose [Inhibitor]: 240 MG/KG DIET DAILY STARTING 1 WK AFTER COMPLETION OF CARCINOGEN TREATMENT AND CONTINUING UNTIL END OF STUDY (STUDY DUR, Species: RAT, Strain/Sex: F344/FEMALE, Target Tissue: Type of Lesion: URINARY BLADDER: PAPILLOMA, Dose [Carcinogen]: 2 G/KG DIET DAILY FOR 10 WK", "result": "10/100 (10%), 7/100 (7%), 30%, p 0.446"}, {"measurement": "tumour outcome (control, treated, inhibition, significance)", "setting": "Carcinogen: N-BUTYL-N-(4-HYDROXYBUTYL)NITROSAMINE, 3817-11-6, Dose [Inhibitor]: 0.8 MMOL/KG DIET DAILY FOR 19 WK STARTING 7 D AFTER FINAL CARCINOGEN DOSE (STUDY DURATION: 6 MO), Species: RAT, Strain/Sex: F344/FEMALE, Target Tissue: Type of Lesion: URINARY BLADDER: TRANSITIONAL CELL CARCINOMA, Dose [Carcinogen]: 150 MG 2/WK FOR 6 WK", "result": "28/80 (35%), 7/40 (18%), 49%, p<0.05"}, {"measurement": "tumour outcome (control, treated, inhibition, significance)", "setting": "Carcinogen: N-BUTYL-N-(4-HYDROXYBUTYL)NITROSAMINE, 3817-11-6, Dose [Inhibitor]: 0.8 MMOL/KG DIET DAILY FOR 19 WK STARTING 7 D AFTER FINAL CARCINOGEN DOSE (STUDY DURATION: 6 MO), Species: RAT, Strain/Sex: F344/MALE, Target Tissue: Type of Lesion: URINARY BLADDER: TRANSITIONAL CELL CARCINOMA, Dose [Carcinogen]: 200 MG 2/WK FOR 8 WK", "result": "55/60 (92%), 24/30 (80%), 13%, not significant"}, {"measurement": "tumour outcome (control, treated, inhibition, significance)", "setting": "Carcinogen: N-BUTYL-N-(4-HYDROXYBUTYL)NITROSAMINE, 3817-11-6, Dose [Inhibitor]: 150 MG/G DIET DAILY STARTING 7 D AFTER THE LAST CARCINOGEN DOSE AND CONTINUING THROUGH THE END OF THE STUDY (STUDY DURAT, Species: MOUSE, Strain/Sex: B6D2F1/FEMALE, MALE, Target Tissue: Type of Lesion: URINARY BLADDER: TRANSITIONAL CELL CARCINOMA, Dose [Carcinogen]: 10 MG 2/WK FOR 9 WK", "result": "23/54 (43%), 19/55 (35%), 19%, not significant"}, {"measurement": "tumour outcome (control, treated, inhibition, significance)", "setting": "Carcinogen: N-BUTYL-N-(4-HYDROXYBUTYL)NITROSAMINE, 3817-11-6, Dose [Inhibitor]: 150 MG/KG DIET DAILY STARTING 7 D AFTER THE LAST CARCINOGEN DOSE AND CONTINUING THROUGH THE END OF THE STUDY (STUDY DURA, Species: MOUSE, Strain/Sex: B6D2F1/FEMALE, MALE, Target Tissue: Type of Lesion: URINARY BLADDER: TRANSITIONAL CELL CARCINOMA, Dose [Carcinogen]: 5 MG 2/WK FOR 9 WK", "result": "29/71 (41%), 19/69 (28%), 32%, not significant"}, {"measurement": "tumour outcome (control, treated, inhibition, significance)", "setting": "Carcinogen: N-BUTYL-N-(4-HYDROXYBUTYL)NITROSAMINE, 3817-11-6, Dose [Inhibitor]: 200 MG/G DIET DAILY STARTING 7 D AFTER THE LAST CARCINOGEN DOSE AND CONTINUING THROUGH THE END OF THE STUDY (STUDY DURAT, Species: MOUSE, Strain/Sex: B6D2F1/FEMALE, MALE, Target Tissue: Type of Lesion: URINARY BLADDER: TRANSITIONAL CELL CARCINOMA, Dose [Carcinogen]: 5 MG 2/WK FOR 9 WK", "result": "29/71 (41%), 17/71 (24%), 41%, p<0.05"}, {"measurement": "tumour outcome (control, treated, inhibition, significance)", "setting": "Carcinogen: N-BUTYL-N-(4-HYDROXYBUTYL)NITROSAMINE, 3817-11-6, Dose [Inhibitor]: 200 MG/G DIET DAILY STARTING 7 D AFTER THE LAST CARCINOGEN DOSE AND CONTINUING THROUGH THE END OF THE STUDY (STUDY DURAT, Species: MOUSE, Strain/Sex: B6D2F1/FEMALE, MALE, Target Tissue: Type of Lesion: URINARY BLADDER: TRANSITIONAL CELL CARCINOMA, Dose [Carcinogen]: 10 MG 2/WK FOR 9 WK", "result": "23/54 (43%), 12/54 (22%), 49%, p<0.05"}, {"measurement": "tumour outcome (control, treated, inhibition, significance)", "setting": "Carcinogen: N-BUTYL-N-(4-HYDROXYBUTYL)NITROSAMINE, 3817-11-6, Dose [Inhibitor]: 200 MG/KG DIET DAILY STARTING 7 D AFTER LAST CARCINOGEN DOSE AND CONTINUING THROUGH THE END OF STUDY (STUDY DURATION: 6, Species: MOUSE, Strain/Sex: C57BL/MALE, Target Tissue: Type of Lesion: URINARY BLADDER: NEOPLASM, Dose [Carcinogen]: 7.5 MG 2/WK FOR 6 WK", "result": "9/24 (38%), 1/19 (5%), 87%, p<0.05"}]}
